Laboratory results as given in patent US12240813B2, “Deuterated tryptamine derivatives and methods of use” (priority 2020, dated 2025).

Assays:
rat liver microsomes = assay: Metabolic stability in rat liver microsomes (RLM); details: for RLM, % (half-life as % vs. the related nondeuterated compound): values in square brackets are within 10% difference (assay's accuracy), no deuteration effect; for RLM (metabolized or not): last assay time point 120 min
hrMAO-A = target: T1, hrMAO-A (Homo sapiens, UniProt P21397); assay: Metabolic stability in the presence of hrMAO-A; format: in vitro ADME; details: for MAO, % (half-life as % vs. the related nondeuterated compound) / MAO (metabolized or not): MAO-A; for MAO, % (half-life as % vs. the related nondeuterated compound): values in square brackets are within 10% difference (assay's accuracy), no deuteration effect; for MAO (metabolized or not): last assay time point 120 min
T1 construct: purchased XenoTech Lot #8213001
T1 sequence (P21397 1-527): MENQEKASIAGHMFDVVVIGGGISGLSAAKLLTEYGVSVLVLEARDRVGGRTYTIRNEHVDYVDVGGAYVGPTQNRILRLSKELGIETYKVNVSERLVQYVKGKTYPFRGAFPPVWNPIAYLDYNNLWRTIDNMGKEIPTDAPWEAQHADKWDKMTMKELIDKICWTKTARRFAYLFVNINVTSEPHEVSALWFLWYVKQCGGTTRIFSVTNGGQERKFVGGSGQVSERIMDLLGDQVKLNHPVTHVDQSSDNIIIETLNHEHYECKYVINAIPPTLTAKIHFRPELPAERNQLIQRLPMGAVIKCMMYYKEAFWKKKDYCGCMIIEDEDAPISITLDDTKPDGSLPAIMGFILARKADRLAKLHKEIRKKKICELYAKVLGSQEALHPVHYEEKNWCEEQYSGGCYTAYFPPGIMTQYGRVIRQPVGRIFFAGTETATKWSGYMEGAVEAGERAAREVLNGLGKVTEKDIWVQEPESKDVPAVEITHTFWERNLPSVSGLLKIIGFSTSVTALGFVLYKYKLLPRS
Description: The reaction mixture was prepared as described below. The co-dosed TAs were added into the reaction mixture at a final concentration of 1 microM each. The positive control, kynuramine (25 microM), was run simultaneously with the TAs in a separate reaction. The reaction mixture (without TAs or kynuramine) was equilibrated in a shaking water bath at 37° C. for 5 minutes. The reaction was initiated by the addition of the TAs or kynuramine, and the mixture was incubated in a shaking water bath at 37° C. Aliquots (100 microL) of the TA reaction mixture were withdrawn at 0, 5, 10, 20, 30, 60, and 120 minutes. Aliquots (100 microL) of the positive control reaction mixture were withdrawn at 0 and 30 minutes. TA and kynuramine samples were immediately combined with 100 microL of ice-cold 100% MeCN containing 0.1% formic acid and IS to terminate the reaction. The samples were then mixed and centrifuged to precipitate proteins. All TA samples were assayed by LC-HRAMS. The PARR (analyte to IS) at each time point was compared to the PARR at time 0 to determine the percent remaining at each time point. Reaction composition: hrMAO 0.02 mg/mL; Potassium Phosphate, pH 7.4 100 mM; Magnesium Chloride 5 mM; Test Articles (each) 1 microM.

`[2H]C([2H])(NC(C)C)C([2H])([2H])c1c[nH]c2ccccc12` was tested, and the “RLM, % (half-life as % vs. the related nondeuterated compound)” value (“RLM, %” for short) (rat liver microsomes; RLM) was “[106] %”.
`[2H]C([2H])(c1c[nH]c2ccccc12)C([2H])([2H])N(C)CC` was tested, and the “RLM, %” value (rat liver microsomes; RLM) was 131% and the “MAO, % (half-life as % vs. the related nondeuterated compound)” value (shortened to “MAO, %”) (hrMAO-A) was 162%.
`[2H]C([2H])(Cc1c[nH]c2ccccc12)NC` was tested, and the “RLM, %” value (rat liver microsomes; RLM) was 182% and the “MAO, %” value (hrMAO-A) was 578%.
For `[2H]C([2H])(NC)C([2H])([2H])c1c[nH]c2ccccc12`, the “RLM, %” value (rat liver microsomes; RLM) was 189% and the “MAO, %” value (hrMAO-A) was 622%.
With `[2H]C([2H])(c1c[nH]c2ccc(O)cc12)C([2H])([2H])N(CC)CC` the “RLM, %” value (rat liver microsomes; RLM) was “[106] %”.
With `CC(C)N(CCc1c[nH]c2cccc(O)c12)C(C)C` [reference compound] the “RLM (metabolized or not)” value (rat liver microsomes; RLM) was “R”.
`[2H]C([2H])(Cc1c[nH]c2ccccc12)N(C)CC` was tested, and the “RLM, %” value (rat liver microsomes; RLM) was 121% and the “MAO, %” value (hrMAO-A) was 168%.
`[2H]C([2H])(Cc1c[nH]c2cccc(OC)c12)N(C)C` was tested, and the “RLM, %” value (rat liver microsomes; RLM) was 185% and the “MAO, %” value (hrMAO-A) was 335%.
For `CCN(C)CCc1c[nH]c2cccc(OC)c12` [reference compound], the “RLM (metabolized or not)” value (rat liver microsomes; RLM) was “R” and the “MAO (metabolized or not)” value (hrMAO-A) was “R”.
`[2H]c1[nH]c2c([2H])c([2H])c(OC)c([2H])c2c1CCN(CC)CC` was tested, and the “RLM, %” value (rat liver microsomes; RLM) was 172%.
With `[2H]C([2H])(c1c[nH]c2ccc(O)cc12)C([2H])([2H])N(C)CC` the “RLM, %” value (rat liver microsomes; RLM) was 144% and the “MAO, %” value (hrMAO-A) was 179%.
`[2H]c1[nH]c2c([2H])c([2H])c([2H])c(O)c2c1CCN(C(C)C)C(C)C` was tested, and the “RLM, %” value (rat liver microsomes; RLM) was 167%.
`COc1cccc2[nH]cc(CCN(C)C)c12` [reference compound] was tested, and the “RLM (metabolized or not)” value (rat liver microsomes; RLM) was “R” and the “MAO (metabolized or not)” value (hrMAO-A) was “R”.
With `[2H]C([2H])(NC)C([2H])([2H])c1c[nH]c2cccc(O)c12` the “RLM, %” value (rat liver microsomes; RLM) was 160% and the “MAO, %” value (hrMAO-A) was 396%.
`CCN(CC)CCc1c[nH]c2ccc(OC)cc12` [reference compound] was tested, and the “RLM (metabolized or not)” value (rat liver microsomes; RLM) was “R”.
With `CC(C)NCCc1c[nH]c2ccccc12` [reference compound] the “RLM (metabolized or not)” value (rat liver microsomes; RLM) was “R”.
`[2H]c1[nH]c2c([2H])c([2H])c([2H])c([2H])c2c1C([2H])([2H])C([2H])([2H])N(C([2H])([2H])[2H])C([2H])([2H])[2H]` [DMT-d15] was tested, and the “half-life compared to DMT-d10” value (rat liver microsomes; RLM assay) was “no improvement in half-life”, the “RLM, %” value (rat liver microsomes; RLM) was 325% and the “MAO, %” value (hrMAO-A) was 643%.
`[2H]C([2H])(Cc1c[nH]c2ccccc12)NC([2H])([2H])C([2H])([2H])[2H]` was tested, and the “RLM, %” value (rat liver microsomes; RLM) was 151% and the “MAO, %” value (hrMAO-A) was 170%.
In the case of `[2H]C([2H])(Cc1c[nH]c2ccc(O)cc12)N(C)C`, the “RLM, %” value (rat liver microsomes; RLM) is reported as 133% and the “MAO, %” value (hrMAO-A) is reported as 415%.
`[2H]C([2H])(Cc1c[nH]c2cccc(OC)c12)N(C)CC` was tested, and the “RLM, %” value (rat liver microsomes; RLM) was 163% and the “MAO, %” value (hrMAO-A) was 281%.
In the case of `[2H]C([2H])(c1c[nH]c2ccc(OC)cc12)C([2H])([2H])N(C)C`, the “RLM, %” value (rat liver microsomes; RLM) is reported as 184% and the “MAO, %” value (hrMAO-A) is reported as 229%.
For `[2H]C([2H])(c1c[nH]c2ccccc12)C([2H])([2H])N(C)C` [DMT-d4], the “% Remaining of Initial, 0 min” value (rat liver microsomes; RLM, 0 min, Table 2, four test articles) was 100%, the “% Remaining of Initial, 5 min” value (rat liver microsomes; RLM, 5 min, Table 2, four test articles) was 70.7% and the “% Remaining of Initial, 10 min” value (rat liver microsomes; RLM, 10 min, Table 2, four test articles) was 59.6%. For the same compound, the “% Remaining of Initial, 20 min” value (rat liver microsomes; RLM, 20 min, Table 2, four test articles) was 51.8%, the “% Remaining of Initial, 30 min” value (rat liver microsomes; RLM, 30 min, Table 2, four test articles) was 46.3% and the “% Remaining of Initial, 60 min” value (rat liver microsomes; RLM, 60 min, Table 2, four test articles) was 34.2%. For the same compound, the “% Remaining of Initial, 120 min” value (rat liver microsomes; RLM, 120 min, Table 2, four test articles) was 23.7%, the “% Remaining of Initial, 0 min” value (hrMAO-A; hrMAO-A, 0 min, Table 3, four test articles) was 100% and the “% Remaining of Initial, 5 min” value (hrMAO-A; hrMAO-A, 5 min, Table 3, four test articles) was 106%. For the same compound, the “% Remaining of Initial, 10 min” value (hrMAO-A; hrMAO-A, 10 min, Table 3, four test articles) was 111%, the “% Remaining of Initial, 20 min” value (hrMAO-A; hrMAO-A, 20 min, Table 3, four test articles) was 102% and the “% Remaining of Initial, 30 min” value (hrMAO-A; hrMAO-A, 30 min, Table 3, four test articles) was 98.2%. For the same compound, the “% Remaining of Initial, 60 min” value (hrMAO-A; hrMAO-A, 60 min, Table 3, four test articles) was 77.4%, the “% Remaining of Initial, 120 min” value (hrMAO-A; hrMAO-A, 120 min, Table 3, four test articles) was 61.4% and the CLint (hrMAO-A; hrMAO-A, Table 3) was 0.119 mL/min/mg protein. It also gave a Half-life (hrMAO-A; hrMAO-A, Table 3, four test articles) greater than 2 h.
With `[2H]C([2H])(Cc1c[nH]c2ccc(OC)cc12)N(C)CC` the “RLM, %” value (rat liver microsomes; RLM) was 117% and the “MAO, %” value (hrMAO-A) was 126%.
`[2H]C([2H])([2H])NC([2H])([2H])Cc1c[nH]c2ccccc12` was tested, and the “RLM, %” value (rat liver microsomes; RLM) was 207% and the “MAO, %” value (hrMAO-A) was 744%.
`[2H]C([2H])([2H])Oc1ccc2[nH]cc(C([2H])([2H])C([2H])([2H])N(C([2H])([2H])[2H])C([2H])([2H])[2H])c2c1` was tested, and the “RLM, %” value (rat liver microsomes; RLM) was 299% and the “MAO, %” value (hrMAO-A) was 372%.
In the case of `CCN(CC)CCc1c[nH]c2ccccc12` [reference compound], the “RLM (metabolized or not)” value (rat liver microsomes; RLM) is reported as “R”.
In the case of `CCNCCc1c[nH]c2cccc(O)c12` [reference compound], the “RLM (metabolized or not)” value (rat liver microsomes; RLM) is reported as “R”.
`C=CCN(CC=C)CCc1c[nH]c2ccccc12` [reference compound] was tested, and the “RLM (metabolized or not)” value (rat liver microsomes; RLM) was “R”.
For `C=CCNCCc1c[nH]c2ccccc12` [reference compound], the “RLM (metabolized or not)” value (rat liver microsomes; RLM) was “R”.
With `CCN(CC)CCc1c[nH]c2cccc(OC)c12` [reference compound] the “RLM (metabolized or not)” value (rat liver microsomes; RLM) was “R”.
In the case of `[2H]C([2H])(NC(C)C)C([2H])([2H])c1c[nH]c2cccc(O)c12`, the “RLM, %” value (rat liver microsomes; RLM) is reported as “[108] %”.
For `[2H]C([2H])([2H])NC([2H])([2H])C([2H])([2H])c1c[nH]c2ccccc12`, the “RLM, %” value (rat liver microsomes; RLM) was 214% and the “MAO, %” value (hrMAO-A) was 711%.
`[2H]C([2H])(c1c[nH]c2ccc(OC)cc12)C([2H])([2H])N(C)CC` was tested, and the “RLM, %” value (rat liver microsomes; RLM) was 115% and the “MAO, %” value (hrMAO-A) was 132%.
`[2H]C([2H])([2H])Oc1ccc2[nH]cc(CC([2H])([2H])N(C([2H])([2H])[2H])C([2H])([2H])[2H])c2c1` was tested, and the “RLM, %” value (rat liver microsomes; RLM) was 288% and the “MAO, %” value (hrMAO-A) was 366%.
`[2H]C([2H])([2H])C([2H])([2H])NC([2H])([2H])C([2H])([2H])c1c[nH]c2cccc(O)c12` was tested, and the “RLM, %” value (rat liver microsomes; RLM) was “[93] %”.
In the case of `CC(C)NCCc1c[nH]c2cccc(O)c12` [reference compound], the “RLM (metabolized or not)” value (rat liver microsomes; RLM) is reported as “R”.
For `CCN(CC)CCc1c[nH]c2ccc(O)cc12` [reference compound], the “RLM (metabolized or not)” value (rat liver microsomes; RLM) was “R”.
With `[2H]C([2H])(c1c[nH]c2ccc(OC)cc12)C([2H])([2H])N(CC)CC` the “RLM, %” value (rat liver microsomes; RLM) was “[95] %”.
With `[2H]C([2H])(c1c[nH]c2ccccc12)C([2H])([2H])N(CC=C)CC=C` the “RLM, %” value (rat liver microsomes; RLM) was “[106] %”.
With `[2H]c1ccc2[nH]c([2H])c(CCN([2H])CC)c2c1O` the “RLM (metabolized or not)” value (rat liver microsomes; RLM) was “R”.
For `[2H]c1[nH]c2c([2H])c([2H])c([2H])c([2H])c2c1CCN([2H])C(C)C`, the “RLM, %” value (rat liver microsomes; RLM) was 145%.
With `[2H]C([2H])(c1c[nH]c2cccc(O)c12)C([2H])([2H])N(C(C)C)C(C)C` the “RLM, %” value (rat liver microsomes; RLM) was “[97] %”.
`[2H]C([2H])(NCC)C([2H])([2H])c1c[nH]c2cccc(O)c12` was tested, and the “RLM, %” value (rat liver microsomes; RLM) was “[94] %”.
`[2H]C([2H])(c1c[nH]c2ccccc12)C([2H])([2H])N(CC)CC` was tested, and the “RLM, %” value (rat liver microsomes; RLM) was “[105] %”.
With `[2H]c1[nH]c2c([2H])c([2H])c([2H])c(O)c2c1CCN([2H])C(C)C` the “RLM, %” value (rat liver microsomes; RLM) was 131%.
